Results as given in publication PMC7529758, “Over-activation of a nonessential bacterial protease DegP as an antibiotic strategy” (Communications Biology, 2020).
Values after ≈ are worked out from the molar mass of the structure shown. *1 amine or outer side, *2 acyl side, *3 side chain or, on linkers, in order; H or OH if unused. Where a SMILES comes first, the peptide text is derived from it. Bridges are numbered along the chain shown (N, C = ends). Roman numbers before positions name the chains, in order. TBMB = c1c(C[*:1])cc(C[*:3])cc1C[*:2]

Legend:
E.coli imp4213 strain = assay type: cell-based, Escherichia coli; conditions: log-phase cells; 2x MIC; both 30 °C and 42 °C; CFU
Protocol: Time-kill experiment was performed by counting the viable bacteria at each time point. The E.coli imp4213 strain was cultured with streptomycin overnight and diluted 1:100 in fresh LB broth. When the OD600 value became 0.01, the activator was added at 2x MIC. The sample was incubated with shaking (180 rpm) at 30 °C or 42 °C, and aliquots were taken after 0, 1, 2, 4, 6, 8, 10, or 12 h. These aliquots were serially diluted (ten-fold) and plated on LB agar plates for colony counts. Experiments were performed in triplicates. The kill curves were plotted with the CFU/mL against time.
Experiments with cells in the stationary phase, however, were performed without dilution of the overnight culture.

DegP^WT = experiment: DegP activation assay with the reporter peptide; assay type: biochemical, Escherichia coli; conditions: reporter 100 μM
Protocol: DegP activation experiments were performed as previously described[14],[22]. All the in vitro assays were performed in a buffer containing 50 mM sodium phosphate (pH 8) and 100 mM NaCl. Two-fold serial dilutions of the activator were incubated with DegP^WT (1, 3, or 10 μM) for 5 min. After incubation, the reporter peptide (Abz-[…]^NO2D; Abz, 2-aminobenzoic acid; Y^NO2, 3-nitrotyrosine; 100 μM final) was added. DegP activation was monitored by increased fluorescence by using a micro-plate reader (excitation 320 nm, emission 430 nm; Infinite F200pro, Tecan). Assays were performed in triplicates.

[1] = system: wild-type Escherichia coli (W3110); experiment: Growth (OD600) of wild-type cells; assay type: cell-based; conditions: LB; OD600 after 12 h; 42 °C
Protocol: (§1) The susceptibility of E. coli to activators was analyzed by determining the MICs. Two-fold serial dilutions of activators in LB broth were added to bacteria (OD600 = 0.1) in 96-well plates. Plates were incubated with shaking at 30 or 42 °C. After 12 h of incubation, the MIC was defined as the lowest concentration of the activator to inhibit the growth of bacteria by using a micro-plate reader (Absorbance 600 nm, Infinite M200pro, Tecan). The assay was performed in triplicates.

DegP^S210A [2] = target: T1, DegP^S210A (Escherichia coli, UniProt P0C0V0, C83S/C95S/N322C/S236A); experiment: FRET assay of DegP cage assembly; assay type: biochemical; conditions: FRET of donor- and acceptor-labeled DegP variants
T1 construct: pET22b-degP(full length; C57S/C69S/N296C/S210A)_6His; 6His (C); made in house; host or cells: E. coli (inferred from the pET plasmid)
Protocol: Fluorescence resonance energy transfer (FRET) assay was performed as previously described[14],[22]. Equimolar amounts of fluorescence donor- and acceptor-labeled DegP^S210A (total 0.1, 1 or 3 μM) was mixed in a buffer containing 50 mM sodium phosphate (pH 8) and 100 mM NaCl. Two-fold serial dilutions of activators were added to the DegP mixtures. Alexa Fluor 555 C2-maleinide and 647 C2-maleinide (life technologies) were used as fluorescence dyes. Cage assembly of DegP was monitored by increased FRET ratio using the micro-plate reader (excitation 520 nm, emission 570 or 670 nm, Infinite M200pro, Tecan). Assays were performed in triplicates.

DegP^S210A [3] = target: T2, DegP^S210A (Escherichia coli, UniProt P0C0V0, S236A); experiment: Fluorescence anisotropy binding assay
T2 construct: pET22b-degP(full length; S210A)_6His; 6His (C); made in house
Protocol: Fluorescence anisotropy assay was performed as previously described[14],[22]. Two-fold serial dilutions of activators were mixed with a fluorescence-labeled peptide (^flC18–58 or ^fl45–58, 50 nM; Oregon Green 488 maleimide, Invitrogen) and DegP^S210A (10 μM for ^flC18–58; 80 μM for ^fl45–58). Anisotropy was monitored by using a micro-plate reader (excitation 485 nm, emission 535 nm, Infinite F200pro, Tecan). The assay was performed in triplicates.

E. coli imp4213 = experiment: microbe, parasite or virus in culture; assay type: cell-based, Escherichia coli; conditions: imp4213, 12 h, LB
Protocol: as §1

T2 sequence (P0C0V0 27-474 S236A): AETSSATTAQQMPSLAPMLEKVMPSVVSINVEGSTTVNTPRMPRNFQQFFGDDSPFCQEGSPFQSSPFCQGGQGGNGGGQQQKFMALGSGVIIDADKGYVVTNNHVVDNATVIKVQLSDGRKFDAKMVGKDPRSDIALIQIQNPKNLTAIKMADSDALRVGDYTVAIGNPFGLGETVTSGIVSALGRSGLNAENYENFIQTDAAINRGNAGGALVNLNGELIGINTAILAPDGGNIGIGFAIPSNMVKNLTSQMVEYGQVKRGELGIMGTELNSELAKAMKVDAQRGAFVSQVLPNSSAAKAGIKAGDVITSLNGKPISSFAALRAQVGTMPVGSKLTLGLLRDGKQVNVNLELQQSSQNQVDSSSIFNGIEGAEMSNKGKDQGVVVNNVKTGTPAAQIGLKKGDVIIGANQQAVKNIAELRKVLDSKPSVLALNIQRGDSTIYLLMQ
T1 sequence (P0C0V0 27-474 C83S/C95S/S236A/N322C): as the sequence (P0C0V0 27-474 S236A) above, with C57S, C69S, N296C counted along it

**Q.** With `CC(C)C[C@H](NC(=O)[C@H](CCCCN)NC(=O)[C@H](CCCNC(=N)N)NC(=O)[C@H](Cc1ccc(O)cc1)NC(=O)[C@@H](N)CSCc1cc(CSC[C@H](N)C(=O)N[C@@H](Cc2ccc(O)cc2)C(=O)N[C@@H](CCCNC(=N)N)C(=O)N[C@@H](CCCCN)C(=O)N[C@@H](CC(C)C)C(=O)O)cc(CSC[C@H](N)C(=O)N[C@@H](Cc2ccc(O)cc2)C(=O)N[C@@H](CCCNC(=N)N)C(=O)N[C@@H](CCCCN)C(=O)N[C@@H](CC(C)C)C(=O)O)c1)C(=O)O` [TMB_CYRKL] (I: H-CYRKL-OH / II: H-CYRKL-OH / III: H-CYRKL-OH; linker I:1-II:1-III:1 via TBMB) as the molecule, how does the “reduction of the number of viable cells” value (E.coli imp4213 strain) read?
**A.** two orders of magnitude

**Q.** What about the “increase of the cleavage rate compared with Lpp^+Leu and TMB_CKYRKL” value (DegP^WT) of the same molecule?
**A.** at least ten times more

**Q.** What about the “activation of DegP (cleavage rate of the reporter peptide)” value (DegP^WT; DegP 1 or 10 μM, increasing concentrations) of the same molecule?
**A.** activation was observed

**Q.** What about the “growth of wild-type E. coli W3110” value [1] of the same molecule?
**A.** did not inhibit growth

**Q.** What about the “assembly of DegP cages” value (DegP^S210A [2]) of the same molecule?
**A.** assemble DegP cages

**Q.** And the “concentrations that enhance binding of fl18-58” value (DegP^S210A [3]; DegPS210A 10 μM)?
**A.** 5~ 40 µM

**Q.** And the “concentrations that interrupt the interaction of fl18-58” value (DegP^S210A [3]; DegPS210A 10 μM)?
**A.** > 40 µM

**Q.** What about the “concentrations that enhance binding of fl45-58” value (DegP^S210A [3]; DegPS210A 80 μM) of the same molecule?
**A.** 10~ 80 µM

**Q.** And the “concentrations that interrupt the interaction of fl45-58” value (DegP^S210A [3]; DegPS210A 80 μM)?
**A.** > 80 µM

**Q.** What about the MIC (E. coli imp4213; 30 °C) of the same molecule?
**A.** 320 µM (≈ 691 µg/mL)

**Q.** And the MIC (E. coli imp4213; Fig. 3a and Supplementary Fig. 6b (30 °C and 42 °C))?
**A.** 320 to 640 µM
